Results from ChEMBL document CHEMBL5360593, “Rare Caulamidine Hexacyclic Alkaloids from the Marine Ascidian Polyandrocarpa sp” (J Nat Prod, 2023).
Active and inactive are the calls of the source. The rule behind the calls is not given here.

Each compound was assayed against E3 ubiquitin-protein ligase CBL-B (Homo sapiens) (UniProt Q13191) (assay: Inhibition of CBLB (unknown origin) using biotinylated ubiquitin as substrate at 20 uM incubated for 1 hr by microplate analysis).
Sequence of E3 ubiquitin-protein ligase CBL-B (Homo sapiens) (Q13191 whole entry): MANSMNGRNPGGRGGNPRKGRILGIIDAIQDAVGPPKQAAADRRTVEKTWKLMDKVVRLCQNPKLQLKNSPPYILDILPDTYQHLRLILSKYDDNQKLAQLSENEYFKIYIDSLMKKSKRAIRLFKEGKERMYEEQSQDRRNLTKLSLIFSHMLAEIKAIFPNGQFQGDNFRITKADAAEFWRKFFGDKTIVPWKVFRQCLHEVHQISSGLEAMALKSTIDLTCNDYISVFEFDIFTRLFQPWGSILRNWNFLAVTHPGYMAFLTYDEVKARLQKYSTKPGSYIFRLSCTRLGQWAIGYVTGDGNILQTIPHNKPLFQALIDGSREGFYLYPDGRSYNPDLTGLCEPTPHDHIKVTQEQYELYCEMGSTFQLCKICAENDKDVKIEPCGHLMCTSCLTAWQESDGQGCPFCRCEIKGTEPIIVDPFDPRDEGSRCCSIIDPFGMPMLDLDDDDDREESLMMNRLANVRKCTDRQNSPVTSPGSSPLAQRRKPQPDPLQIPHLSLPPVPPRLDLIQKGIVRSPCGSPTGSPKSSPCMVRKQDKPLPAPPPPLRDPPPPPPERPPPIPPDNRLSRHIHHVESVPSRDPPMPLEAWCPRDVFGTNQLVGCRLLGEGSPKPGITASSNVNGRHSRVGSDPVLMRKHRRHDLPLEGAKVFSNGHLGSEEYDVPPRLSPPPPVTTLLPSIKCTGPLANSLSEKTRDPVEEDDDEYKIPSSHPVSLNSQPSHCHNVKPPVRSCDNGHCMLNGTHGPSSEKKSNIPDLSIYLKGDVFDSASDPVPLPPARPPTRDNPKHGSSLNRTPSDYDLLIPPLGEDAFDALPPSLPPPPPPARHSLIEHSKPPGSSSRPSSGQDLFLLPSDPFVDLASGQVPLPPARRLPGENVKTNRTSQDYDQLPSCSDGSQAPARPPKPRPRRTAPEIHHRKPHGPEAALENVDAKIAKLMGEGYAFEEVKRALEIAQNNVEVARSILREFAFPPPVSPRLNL

inhibition, inactive:
CN1C[C@@H](Cl)[C@@]23C(=Nc4cc(Br)ccc42)N(C)CC[C@@]32Cc3ccc(Br)cc3N=C12
CN1C[C@@H](Cl)[C@@]23C(=Nc4ccccc42)N(C)CC[C@@]32Cc3ccc(Br)cc3N=C12
CN1C[C@H](Cl)[C@]23Cc4ccc(Br)cc4N(C)C2=NC[C@@H](Cl)[C@]32C1=Nc1ccccc12
CN1CC[C@]23Cc4ccc(Br)cc4N(C)C2=NC[C@@H](Cl)[C@]32C1=Nc1cc(Br)ccc12
CN1C[C@@H](Cl)[C@@]23C(=Nc4ccccc42)N(C)C[C@H](Cl)[C@@]32Cc3ccc(Br)cc3N=C12
CN1CC[C@]23Cc4ccc(Br)cc4N(C)C2=NC[C@@H](Cl)[C@]32C1=Nc1ccccc12
